What was measured:
Nociceptin receptor [1] = biological target: T1, Nociceptin receptor (Rattus norvegicus, UniProt P35370); test: Displacement of [3H]nociceptin from rat ORL1 receptor expressed in african green monkey COS7 cells; assay type: cell-based, COS-7
Nociceptin receptor [2] = biological target: T1, Nociceptin receptor; test: Activation of rat ORL1 receptor expressed in african green monkey COS7 cells by [35S]GTPgammaS binding assay; assay type: functional, cell-based, COS-7
[3] = Stability in presence of trypsin assessed as half life of compound hydrolysis; assay type: ADME
[4] = biological target: Nociceptin receptor (Rattus norvegicus) (UniProt P35370); test: Activation of rat ORL1 receptor expressed in african green monkey COS7 cells assessed as stimulation of [35S]GTPgammaS binding relative to nociceptin; assay type: functional, cell-based; details: COS-7
[5] = Stability in presence of rat brain trypsin assessed compound degradation after 60 mins by HPLC; assay type: ADME; details: read-out: Activity
[6] = Stability in presence of rat brain trypsin assessed as half life of compound hydrolysis in presence of trypsin inhibitor bacitracin by HPLC; assay type: ADME, tissue-based; details: isolated protein
[7] = Stability in presence of rat brain trypsin assessed as half life of compound hydrolysis by HPLC; assay type: physicochemical

T1 sequence (P35370 whole entry): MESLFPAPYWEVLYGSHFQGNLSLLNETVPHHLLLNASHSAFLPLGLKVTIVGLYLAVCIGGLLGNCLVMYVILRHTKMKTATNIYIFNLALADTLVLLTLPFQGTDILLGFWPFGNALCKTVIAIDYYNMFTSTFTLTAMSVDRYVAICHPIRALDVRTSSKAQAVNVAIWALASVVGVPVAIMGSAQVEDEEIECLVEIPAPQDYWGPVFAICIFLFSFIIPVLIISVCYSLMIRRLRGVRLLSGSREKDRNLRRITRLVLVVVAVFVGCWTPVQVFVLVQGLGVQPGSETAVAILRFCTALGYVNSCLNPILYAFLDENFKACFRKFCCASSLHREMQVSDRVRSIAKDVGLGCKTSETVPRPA
Nociceptin receptor (Rattus norvegicus), sequence (P35370 whole entry): as above

Compound | IC50 (Nociceptin receptor [1]) | EC50 (Nociceptin receptor [2]) | also measured
H-FGGFTGARKSARKFANQ-OH | 1.1 nM | 9 nM | 
CC(C)C[C@H](NC(=O)[C@H](CCCCN)NC(=O)[C@H](CCCNC(=N)N)NC(=O)[C@H](C)NC(=O)[C@H](CO)NC(=O)[C@H](CCCCN)NC(=O)[C@H](CCCNC(=N)N)NC(=O)[C@H](C)NC(=O)CNC(=O)[C@@H](NC(=O)[C@H](Cc1ccccc1)NC(=O)CNC(=O)CNC(=O)[C@@H](N)Cc1ccccc1)[C@@H](C)O)C(=O)N[C@@H](CCCCN)C(=O)N[C@@H](CC(N)=O)C(=O)N[C@@H](CCC(N)=O)C(=O)O | 0.41 nM | 5.8 nM | half-life [3]: 20 min
H-FGGFTGARKSARKLARK-OH | 0.54 nM | 2.7 nM | 
H-FGGFTGARKSARKLYNQ-OH | 1 nM | 33 nM | 
C[C@H](NC(=O)CNC(=O)[C@@H](NC(=O)[C@H](Cc1ccccc1)NC(=O)CNC(=O)CNC(=O)[C@@H](N)Cc1ccccc1)[C@@H](C)O)C(=O)N[C@@H](CCCNC(=N)N)C(=O)N[C@@H](CCCCN)C(=O)N[C@@H](CO)C(=O)N[C@@H](C)C(=O)N[C@@H](CCCNC(=N)N)C(=O)N[C@@H](CCCCN)C(=O)N[C@@H](CCCNC(=N)N)C(=O)N[C@@H](CCCCN)C(=O)N[C@@H](CC(N)=O)C(=O)N[C@@H](CCC(N)=O)C(=O)O |  |  | Activity [4]: 10%
H-FGGFTGARKSARKKKNQ-OH | 0.16 nM | 1.1 nM | 
H-FGGFTGARKSARKKRNQ-OH | 0.21 nM | 1.3 nM | 
H-FGGFTRKRKSARKLANQ-OH [listing 1 of 2 here] | 13 nM | 870 nM | 
H-FGGFTGARKSARKLLNQ-OH | 0.48 nM | 10 nM | 
H-FGGFTGARKSARKRANQ-OH | 0.33 nM | 4 nM | half-life [3]: 23 min
H-FGGFTGARKRKRKLANQ-OH [listing 1 of 2 here] |  |  | Activity [4]: > 90%
H-FGGFTGARKSARKRKRK-OH | 0.42 nM | 2.3 nM | 
H-FGGFTGARKSARKAANQ-OH | 1.5 nM | 11 nM | 
C[C@H](NC(=O)CNC(=O)[C@@H](NC(=O)[C@H](Cc1ccccc1)NC(=O)CNC(=O)CNC(=O)[C@@H](N)Cc1ccccc1)[C@@H](C)O)C(=O)N[C@@H](CCCN=C(N)N)C(=O)N[C@@H](CCCCN)C(=O)N[C@@H](CO)C(=O)N[C@@H](C)C(=O)N[C@@H](CCCN=C(N)N)C(=O)N[C@@H](CCCCN)C(=O)N[C@@H](CCCN=C(N)N)C(=O)N[C@@H](CCCCN)C(=O)N[C@@H](CC(N)=O)C(=O)N[C@@H](CCC(N)=O)C(=O)O | 0.21 nM | 1.1 nM | metabolised at 1 h [5]: < 10%; half-life [3]: 30 min; Stability [6]: Stable; half-life [7]: 600 min
H-FGGFTGARKSARKKANQ-OH | 0.41 nM | 4.1 nM | 
H-FGGFTGARKSARKRRNQ-OH | 0.27 nM | 0.98 nM | 
H-FGGFTGARKSARKWANQ-OH | 0.41 nM | 5.8 nM | 
H-FGGFTRKRKSARKLANQ-OH [listing 2 of 2 here] |  |  | Activity [4]: 60%
H-FGGFTGARKSARKLVNQ-OH | 2.2 nM | 30 nM | 
H-FGGFTGARKRKRKLANQ-OH [listing 2 of 2 here] | 0.94 nM | 86 nM | 
H-FGGFTGARKSARKLFNQ-OH | 1 nM | 12 nM | 
H-FGGFTGARKSARKLWNQ-OH | 2.1 nM | 50 nM | 
CC(C)C[C@H](NC(=O)[C@H](CCCCN)NC(=O)[C@H](CCCN=C(N)N)NC(=O)[C@H](C)NC(=O)[C@H](CO)NC(=O)[C@H](CCCCN)NC(=O)[C@H](CCCN=C(N)N)NC(=O)[C@H](C)NC(=O)CNC(=O)[C@@H](NC(=O)[C@H](Cc1ccccc1)NC(=O)CNC(=O)CNC(=O)[C@@H](N)Cc1ccccc1)[C@@H](C)O)C(=O)N[C@@H](C)C(=O)N[C@@H](CC(N)=O)C(=O)N[C@@H](CCC(N)=O)C(=O)O [NOCICEPTIN] |  |  | metabolised at 1 h [5]: 10%; half-life [3]: 13 min; Stability [6]: Stable; half-life [7]: 480 min
H-FGGFTGARKSARKLRNQ-OH | 0.31 nM | 3.2 nM | 
C[C@H](NC(=O)CNC(=O)[C@@H](NC(=O)[C@H](Cc1ccccc1)NC(=O)CNC(=O)CNC(=O)[C@@H](N)Cc1ccccc1)[C@@H](C)O)C(=O)N[C@@H](CCCN=C(N)N)C(=O)N[C@@H](CCCCN)C(=O)N[C@@H](CO)C(=O)N[C@@H](C)C(=O)N[C@@H](CCCN=C(N)N)C(=O)N[C@@H](CCCCN)C(=O)N[C@@H](Cc1ccc(O)cc1)C(=O)N[C@@H](C)C(=O)N[C@@H](CC(N)=O)C(=O)N[C@@H](CCC(N)=O)C(=O)O | 1.1 nM | 11 nM | 
H-FGGFTGARKSARKVANQ-OH | 1.1 nM | 15 nM | 

Reference: ChEMBL document CHEMBL1142464, “Synergistic effect of basic residues at positions 14-15 of nociceptin on binding affinity and receptor activation” (Bioorg Med Chem, 2008)
